Patent US20230372313A1, “METHODS FOR REDUCING GLYCOSPHINGOLIPID CONCENTRATION IN BRAIN TISSUE AND METHODS OF TREATMENT OF NEURODEGENERATIVE DISEASES INVOLVING THE SAME” (GENZYME CORPORATION, priority 2020, published 2023)
Where two headings read alike, the source gives them in different places.

Columns and labels:
[1] = Plasma pharmacokinetics of Compound 2 in PD participants (LC-MS/MS); type: in vivo, human; conditions: plasma, plasma; for Tmax / AUC(0-t) / Cmax: human, po, 15 mg; for Tmax: read-out: tmax, median
Procedure: (§1) Participants were randomised to 3 doses of once-daily orally administered Compound 2 or placebo, in sequential cohort design, and were followed up to 36 weeks (52 weeks for Japanese participants). Participants in the low-dose group received 4 mg of Compound 2 as a once daily oral dose; participants in the mid-dose group received 8 mg of Compound 2 a once daily oral dose; and participants in the high-dose group received 15 mg of Compound 2 a once daily oral dose.
Analyses were based on all available data from participants who enrolled in part 1 of the trial and were randomised to receive either Compound 2 or placebo for up to 52 weeks for Japanese participants and 36 weeks for the ROW population. As part 1 was an exploratory, dose-escalation study, the sample size was not based on a statistical power calculation. Participants included in the primary safety analyses were those who were randomized and received at least one dose of Compound 2 or placebo. A data monitoring committee was responsible for overseeing the safety of patients and the risk/benefit ratio throughout the study. Duration of exposure to Compound 2 was different among the doses, as per the sequential cohort design, with the low- and high-dose cohorts commencing the study first and last, respectively. For pharmacokinetics, plasma parameters were calculated using noncompartmental methods, from plasma Compound 2 concentrations obtained after single dose administration. AUC0-24 and AUC0-48 were calculated using the trapezoidal method over a predefined time period of 24 hours or 48 hours, respectively. CLss/F was calculated using the following equation: CLss/F=Dose/AUCτ, where τ is the dosing interval. For pharmacodynamics, percent reduction of plasma or CSF GL-1 from baseline was calculated as (value−baseline)/baseline×100. Formal statistical testing was not conducted on MDS-UPDRS scale assessments.
(§2) The secondary outcome was to evaluate the pharmacokinetic profile of Compound 2 in plasma and cerebrospinal fluid (CSF) over a 4-week period. Plasma pharmacokinetic parameters included maximum plasma concentration (Cmax), time to Cmax (tmax), and area under the plasma concentration versus time curve from 0 to 24 h (AUC0-24). All parameters were assessed at Week 0 and Week 4 after treatment. In addition, AUC0-48 was assessed at Week 0, trough plasma concentration observed just before treatment administration during repeated dosing (Ctrough) was assessed at Weeks 2, 4, and 8 (FIG. 3), and total systemic clearance from plasma at steady state (CLSS/F) was assessed at Week 4. Plasma samples were collected at 1 hour pre-dose and 1, 2, 4, 8, 24, and 48 hours postdose. Compound 2 concentration in plasma was determined using a liquid chromatography tandem mass spectrometry method with a lower limit of quantification of 0.500 ng/mL. CSF samples were collected by lumbar puncture during the screening period (within 14 days prior to randomisation) or on the day of randomisation, and at Week 4, within 2 to 4 hours postdose. Compound 2 concentration in CSF was determined using a liquid chromatography tandem mass spectrometry method with a lower limit of quantification of 0.100 ng/mL.

[2] = CSF concentration of Compound 2 in PD participants (LC-MS/MS); type: in vivo, human; conditions: for CSF concentration, mean: week 4, 2-4 h postdose; for CSF concentration, Fold increase vs low dose: week 4
Procedure: as §1, §2

[3] = Day 1, Japan, High 15 mg oral, n = 3
[4] = Week 4, ROW, High 15 mg once daily oral, n = 4
[5] = Week 4, Japan, High 15 mg once daily oral, n = 2
[6] = Week 4, Japan, High 15 mg vs Low 4 mg
[7] = Week 4, Japan, Low 4 mg once daily oral, n = 1
[8] = Week 4, Japan, Mid 8 mg once daily oral, n = 3
[9] = Week 4, Japan, Mid 8 mg vs Low 4 mg
[10] = Week 4, ROW, High 15 mg vs Low 4 mg
[11] = Week 4, ROW, Low 4 mg once daily oral, n = 4
[12] = Week 4, ROW, Mid 8 mg once daily oral, n = 5
[13] = Week 4, ROW, Mid 8 mg vs Low 4 mg

## CC(C)(NC(=O)O[C@@H]1CN2CCC1CC2)c1csc(-c2ccc(F)cc2)n1 [Compound 2, (S)-quinuclidin-3-yl (2-(2-(4-fluorophenyl)thiazol-4-yl)propan-2-yl)carbamate]
[1]; [3]
  Tmax: 4.1 h
  Cmax, Geometric mean: 53.3 ng/mL
[1]; Day 1, ROW, High 15 mg oral, n = 4, read-out: AUC0-24, Geometric mean
  AUC(0-t): 868 ng·h/mL
[1]; Day 1, ROW, High 15 mg oral, n = 4, read-out: AUC0-24, mean
  AUC(0-t): 873 ng·h/mL
[1]; Day 1, ROW, High 15 mg oral, n = 4, read-out: AUC0-48, Geometric mean
  AUC(0-t): 1440 ng·h/mL
[1]; Day 1, ROW, High 15 mg oral, n = 4, read-out: AUC0-48, mean
  AUC(0-t): 1450 ng·h/mL
[1]; Day 1, ROW, High 15 mg oral, n = 4, read-out: Cmax, Geometric mean
  Cmax: 47.1 ng/mL
[1]; Day 1, ROW, High 15 mg oral, n = 4, read-out: Cmax, mean
  Cmax: 47.4 ng/mL
[1]; Day 1, ROW, High 15 mg oral, n = 4
  Tmax: 3.94 h
[1]; Week 4, Japan, High 15 mg once daily oral, n = 2, read-out: AUC0-24, Geometric mean
  AUC(0-t): 3140 ng·h/mL
[1]; Week 4, Japan, High 15 mg once daily oral, n = 2, read-out: AUC0-24, mean
  AUC(0-t): 3150 ng·h/mL
[1]; Week 4, Japan, High 15 mg once daily oral, n = 3, read-out: Cmax, Geometric mean
  Cmax: 144 ng/mL
[1]; Week 4, Japan, High 15 mg once daily oral, n = 3, read-out: Cmax, mean
  Cmax: 145 ng/mL
[1]; Week 4, Japan, High 15 mg once daily oral, n = 3
  Tmax: 2.1 h
[1]; Week 4, ROW, High 15 mg once daily oral, n = 4, read-out: AUC0-24, Geometric mean
  AUC(0-t): 2490 ng·h/mL
[1]; Week 4, ROW, High 15 mg once daily oral, n = 4, read-out: AUC0-24, mean
  AUC(0-t): 2510 ng·h/mL
[1]; Week 4, ROW, High 15 mg once daily oral, n = 4, read-out: Cmax, Geometric mean
  Cmax: 135 ng/mL
[1]; Week 4, ROW, High 15 mg once daily oral, n = 4, read-out: Cmax, mean
  Cmax: 136 ng/mL
[1]; [4]
  Tmax: 2.89 h
  CLss/F, Geometric mean: 6030 mL/h
  CLss/F, mean: 6100 mL/h
[1]; [5]
  CLss/F, Geometric mean: 4770 mL/h
  CLss/F, mean: 4780 mL/h
[1]; [6]
  AUC0-24, Fold increase vs low dose: 2.78 fold
  CLss/F, Fold increase vs low dose: 1.35 fold
  Cmax (geometric mean), Fold increase vs low-dose: 2.56 fold
[1]; [7]
  CLss/F, Geometric mean: 3540 mL/h
  CLss/F, mean: 3540 mL/h
[1]; [8]
  CLss/F, Geometric mean: 4930 mL/h
  CLss/F, mean: 5010 mL/h
  Cmax, mean: 83.7 ng/mL
[1]; [9]
  AUC0-24, Fold increase vs low dose: 1.43 fold
  CLss/F, Fold increase vs low dose: 1.39 fold
  Cmax (geometric mean), Fold increase vs low-dose: 1.47 fold
[1]; [10]
  AUC0-24, Fold increase vs low dose: 3.26 fold
  CLss/F, Fold increase vs low dose: 1.15 fold
  Cmax (geometric mean), Fold increase vs low-dose: 3.29 fold
[1]; [11]
  CLss/F, Geometric mean: 5240 mL/h
  CLss/F, mean: 5270 mL/h
[1]; [12]
  CLss/F, Geometric mean: 5370 mL/h
  CLss/F, mean: 5450 mL/h
[1]; [13]
  AUC0-24, Fold increase vs low dose: 1.95 fold
  CLss/F, Fold increase vs low dose: 1.02 fold
  Cmax (geometric mean), Fold increase vs low-dose: 1.85 fold
[1]; Weeks 2, 4, and 8 (FIG. 3)
  Ctrough versus dose: increased in a dose-proportional manner
[2]; Japan, High 15 mg once daily oral, n = 3
  CSF concentration, mean: 10.1 ng/mL
[2]; Japan, Low 4 mg once daily oral, n = 3
  CSF concentration, mean: 2.11 ng/mL
[2]; Japan, Mid 8 mg once daily oral, n = 3
  CSF concentration, mean: 4.33 ng/mL
[2]; ROW, High 15 mg once daily oral, sample not collected for 1 of n = 4
  CSF concentration, mean: 5.96 ng/mL
[2]; ROW, Low 4 mg once daily oral, 1 of n = 4 not included
  CSF concentration, mean: 1.85 ng/mL
[2]; ROW, Mid 8 mg once daily oral, 2 of n = 5 not included
  CSF concentration, mean: 3.15 ng/mL
[2]; Japan, High 15 mg vs Low 4 mg
  CSF concentration, Fold increase vs low dose: 4.79 fold
[2]; Japan, Mid 8 mg vs Low 4 mg
  CSF concentration, Fold increase vs low dose: 2.05 fold
[2]; ROW, High 15 mg vs Low 4 mg
  CSF concentration, Fold increase vs low dose: 3.22 fold
[2]; ROW, Mid 8 mg vs Low 4 mg
  CSF concentration, Fold increase vs low dose: 1.70 fold
[2]; Japanese and ROW cohorts, 4, 8, 15 mg
  increase of Compound 2 concentration in CSF with dose: close to dose-proportional manner
